We go through four compounds from patent publication US9441012B2, “Fluorinated epoxyketone-based compounds and uses thereof as proteasome inhibitors” (FLUORINOV PHARMA INC., priority 2012, dated 2016).

Usually IC50 stands for the concentration that gives 50% inhibition. High values mean a need for much substance, low ones inhibition by little substance.

One assay has as its system KMS-11. In words: Cell viability assay (MTS). It counts as cell-based. The note with it: Homo sapiens, 72 hours, mean ± standard deviation. As for the experimental part:
(§1) Human multiple myeloma cell lines 8226, H929, JJN3, KMH11, KMS11, KMS18, LP1, MM1S, OPM2 and U266 were grown in Iscove modified Dulbecco's medium (IMDM). Human leukemia cell lines K562, OCI-AML2 and U937 were cultured in RPMI-1640 medium. Primary peripheral blood mononuclear cells were isolated from multiple myeloma patients by Ficoll density gradient centrifugation and bone marrow aspirates were obtained from multiple myeloma patients at the Princess Margaret Cancer Centre of the University Health Network (UHN; Toronto, ON, Canada). Primary cells were cultured in IMDM. The collection and use of human tissue for this study were approved by the UHN institutional ethics review board. All cell culture media were obtained from the Ontario Cancer Institute Tissue Culture Media Facility (Toronto, ON, Canada) and were supplemented with 10% fetal calf serum, […] (Hyclone, Logan, Utah). All cells were grown in a humidified incubator at 37° C. with 5% CO2.
(§2) Cellular viability was primarily assessed by 3-(4,5-dimethylthiazol-2-yl)-5-(3-carboxymethoxyphenyl)-2-(4-sulfophenyl)-2H-tetrazolium (MTS) assay according to the manufacturer's instructions (Promega; Madison, Wis.). Cells were first seeded at a density of 10,000 cells per well in tissue culture-treated 96-well plates. Two hours after seeding, cells were treated with compounds for 72 hours at concentrations as indicated. As a control, cells were treated with DMSO alone in every assay plate. Following treatment and the MTS assay, cell viability was independently confirmed by reading the optical density (O.D.) at 490 nm and by exclusion of trypan blue stain (Invitrogen; Burlington, ON, Canada). The viability of primary mononuclear cells was determined by staining with Annexin V.
(§3) Table 9 summarizes data obtained for representative compounds of Formula I for cell viability and CT-L proteasome activity using OCI-AML-2 and KMS-11 cell lines.

Another assay has as its system OCI-AML-2. Description: Cell viability assay (MTS). It counts as cell-based. The note with it: Homo sapiens, OCI-AML2, 72 hours, mean ± standard deviation. Here is the method: as §1, §2, §3
The subject of assay [1] is chymotrypsin-like (CT-L) proteasome activity, OCI-AML-2. In words: Proteasome enzymatic activity (tumor cell lysates). It is filed as biochemical, human. The note with it: OCI-AML-2 cell lysate; mean ± standard deviation. As for the experimental part:
(§4) Cells were harvested by centrifugation at 1,200 rpm at room temperature. Cell pellets were washed with PBS and lysed with assay lysis buffer (50 mM HEPES (N-2-hydroxyethylpiperazine-N′-2-ethanesulfonic acid), pH 7.5; 150 mM NaCl; 1% Triton X-100; 2 mM ATP). Cell lysates were incubated on ice for 30 minutes, mixed by vortex every 5 minutes, and then centrifuged at 12,000 g for 10 minutes. The supernatant was transferred to a 96-well plate. For each assay, 10 μg of total protein were incubated for 1 hour at 37° C. with increasing concentrations (1 nM to 10 μM) of test compound diluted in assay buffer (50 mM Tris-HCl (tris(hydroxymethyl)aminomethane-HCl), pH 7.5; 150 mM NaCl). DMSO alone was used as a control in every assay plate. After incubation, a specific fluorogenic proteasome substrate was added to each assay reaction at a final concentration of 40 μM in a total volume of 100 μL. N-Succinyl-Leu-Leu-Val-Tyr-7-amino-4-methylcoumarin (Suc-Leu-Leu-Val-Tyr-AMC) was used for measuring chymotrypsin-like (CT-L) activity, t-butoxycarbonyl-Leu-Arg-Arg-7-amino-4-methylcoumarin (Boc-Leu-Arg-Arg-AMC) for trypsin-like (T-L) activity, and benzyloxycarbonyl-L-leucyl-L-leucyl-L-glutamyl-7-amino-4-methylcoumarin (Z-Leu-Leu-Glu-AMC) for caspase-like (C-L) activity. The excitation wavelength was set at 360 nm and the fluorescence emission wavelength of AMC was detected at 460 nm. The fluorescence of free AMC released during the enzymatic reaction was measured with a SpectraMax M5 fluorescent spectrophotometric plate reader (Molecular Devices, Sunnyvale, Calif.). AMC release rate was measured at 37° C. in a kinetic mode, recording every 5 minutes for 30 minutes. Experiments were performed in triplicate and repeated at least twice.
as §3

In assay [2] the test system is chymotrypsin-like (CT-L) proteasome activity, KMS-11. In words: Proteasome enzymatic activity (tumor cell lysates). It counts as biochemical, human. The note with it: KMS-11 cell lysate; mean ± standard deviation. As for the experimental part:
as §4, §3

For assay [3], the system named is primary CD138+ myeloma cells. The note with it: compared with Example 1; Trudel et al. ASH 2009; cited from earlier work.

Turning to `CC(C)C[C@H](NC(=O)[C@H](COC(F)F)NC(=O)CN1CCOCC1)C(=O)N[C@@H](Cc1ccccc1)C(=O)[C@@]1(C)CO1` [Example 27, (2S)-N-[(1S)-1-benzyl-2-[(2R)-2-methyloxiran-2-yl]-2-oxo-ethyl]-2-[[(2S)-3-(difluoromethoxy)-2-[(2-morpholinoacetyl)amino]propanoyl]amino]-4-methylpentanamide], the IC50 in the assay with KMS-11 is 250 ± 25.9 nM; in the assay on OCI-AML-2 it was 401 ± 275 nM; in assay [1], 600 ± 57.5 nM; in assay [2], 742 ± 83.7 nM.

Consider `CC(C)C[C@H](NC(=O)[C@H](COC(F)F)NC(=O)CN1CCOCC1)C(=O)N[C@@H](CC(C)C)C(=O)[C@@]1(C)CO1` [Example 28, (2S)-2-[[(2S)-3-(difluoromethoxy)-2-[(2-morpholino-acetyl)amino]propa-noyl]amino]-4-methyl-N-[(1S)-3-methyl-1-[(2R)-2-methyloxirane-2-carbonyl]butyl]pentanamide], for which the half-inhibitory concentration (IC50) in the assay with KMS-11 was 100 ± 18.7 nM; in the assay with OCI-AML-2, 132 ± 87.5 nM; in assay [1], 556 ± 123 nM; in assay [2], 575 ± 62.7 nM.

Consider `CC(C)C[C@H](NC(=O)[C@H](COC(F)F)NC(=O)[C@H](COC(F)F)NC(=O)CN1CCOCC1)C(=O)[C@@]1(C)CO1` [Example 33, (2S)-3-(difluoromethoxy)-N-[(1S)-1-(difluoromethoxymethyl)-2-[[(1S)-3-methyl-1-[(2R)-2-methyloxirane-2-carbonyl]butyl]amino]-2-oxo-ethyl]-2-[(2-morpholinoacetyl)amino]propanamide], for which the concentration for half-maximal inhibition (IC50) in the assay with KMS-11 is 46.7 ± 9.89 nM; in the assay with OCI-AML-2, 140 ± 53.5 nM; in assay [1], 599 ± 77.7 nM; in assay [2] it was 704 ± 173 nM.

With `CC(C)C[C@H](NC(=O)[C@H](CCc1ccccc1)NC(=O)CN1CCOCC1)C(=O)N[C@@H](Cc1ccccc1)C(=O)N[C@@H](CC(C)C)C(=O)[C@@]1(C)CO1` [carfilzomib], in assay [3], the “therapeutic index between CD138+ and CD-138− in patient samples” value is “much narrower therapeutic index”.
